From patent US6413936B1, “Glycomimetics as selectin antagonists and pharmaceuticals having antiinflammatory activity” (Glycorex AB, priority 1995, dated 2002)
pIC50: −log10 of the molar value. Read-outs that look alike come from different tables or passages of the source. Numbered stars: 1 amine (or outer) side, 2 acyl side, 3 side chain; on linkers, the order of the positions; unused ones are H or OH. Square brackets hold non-standard residues; d marks the D form. Peptide text beside a SMILES is read from it. ξ: configuration not given here. X1 = CC1O[C@@H](CCCc2ccc(CC(N[*:1])C(=O)[*:2])cc2)C(O)C(O)[C@@H]1O; ξR = N=C(N)NCCCC(N)C(=O)O; ξS = NC(CO)C(=O)O

Columns and labels:
selectin = settings: cited from earlier work
P-selectin [1] = molecular target: T1, P-selectin (Homo sapiens, UniProt P16109); assay: HL60 cell adhesion assay on recombinant soluble P-selectin-IgG1 fusion protein; type: cell-based; settings: HL60 cell adhesion to P-selectin-IgG1
T1 construct: fused on or other part: constant region (hinge-Fc) of human IgG1 at the C-terminus, used as a capture handle
T1 sequence (P16109 42-321 limits assumed): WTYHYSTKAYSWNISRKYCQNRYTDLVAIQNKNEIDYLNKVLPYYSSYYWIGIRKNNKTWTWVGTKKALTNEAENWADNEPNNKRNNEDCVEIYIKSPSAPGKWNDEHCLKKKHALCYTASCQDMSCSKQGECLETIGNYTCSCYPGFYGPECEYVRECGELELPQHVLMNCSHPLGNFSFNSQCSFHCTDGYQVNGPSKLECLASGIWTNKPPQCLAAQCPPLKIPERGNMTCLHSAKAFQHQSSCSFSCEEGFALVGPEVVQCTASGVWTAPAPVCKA
Excerpt: 5. […] In the course of this, the cells have the opportunity to adhere to the coated plastic.

selectins [2] = settings: prior-art mimetics, Wong et al.; cited from earlier work
P-selectin [3] = molecular target: T2, P-selectin (Homo sapiens, UniProt P16109); settings: read-out: IC50 for binding to P-selectin; cited from earlier work
T2 sequence (P16109 42-830): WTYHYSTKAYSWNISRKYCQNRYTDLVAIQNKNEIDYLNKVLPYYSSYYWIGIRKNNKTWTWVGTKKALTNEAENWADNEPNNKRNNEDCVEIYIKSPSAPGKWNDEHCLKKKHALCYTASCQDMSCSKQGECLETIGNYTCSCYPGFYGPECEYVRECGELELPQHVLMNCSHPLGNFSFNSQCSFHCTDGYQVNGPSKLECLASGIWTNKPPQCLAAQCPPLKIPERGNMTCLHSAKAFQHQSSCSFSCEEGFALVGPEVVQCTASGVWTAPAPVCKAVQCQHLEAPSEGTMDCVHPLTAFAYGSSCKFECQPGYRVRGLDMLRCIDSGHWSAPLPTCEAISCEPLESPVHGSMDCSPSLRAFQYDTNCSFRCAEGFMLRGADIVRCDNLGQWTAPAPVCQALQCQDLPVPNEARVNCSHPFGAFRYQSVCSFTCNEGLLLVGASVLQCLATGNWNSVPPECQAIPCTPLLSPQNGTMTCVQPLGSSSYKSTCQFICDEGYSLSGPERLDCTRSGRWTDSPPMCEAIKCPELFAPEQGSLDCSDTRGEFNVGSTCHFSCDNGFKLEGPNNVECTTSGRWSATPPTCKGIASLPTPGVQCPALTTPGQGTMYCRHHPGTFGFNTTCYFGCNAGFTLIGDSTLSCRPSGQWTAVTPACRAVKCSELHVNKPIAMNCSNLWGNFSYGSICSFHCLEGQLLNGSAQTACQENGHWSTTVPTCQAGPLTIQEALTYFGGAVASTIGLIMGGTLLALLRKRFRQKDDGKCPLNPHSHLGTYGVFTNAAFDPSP

[4] = system: myocardial reperfusion injuries; settings: animal experiments; cited from earlier work
[5] = system: P-selectin-dependent lung damage; settings: animal experiments; cited from earlier work
E-selectin = molecular target: T3, E-selectin (Homo sapiens, UniProt P16581); assay: HL60 cell adhesion assay on recombinant soluble E-selectin-IgG1 fusion protein; type: cell-based; settings: HL60 cell adhesion to E-selectin-IgG1
T3 construct: fusion proteins formed from the extracytoplasmatic domains of E- or P-selectin, respectively, and the constant region of human immunoglobulin of the IgG1 subclass; made in house; host or cells: COS-7 cells (transient transfection, culture supernatant)
T3 sequence (P16581 22-556): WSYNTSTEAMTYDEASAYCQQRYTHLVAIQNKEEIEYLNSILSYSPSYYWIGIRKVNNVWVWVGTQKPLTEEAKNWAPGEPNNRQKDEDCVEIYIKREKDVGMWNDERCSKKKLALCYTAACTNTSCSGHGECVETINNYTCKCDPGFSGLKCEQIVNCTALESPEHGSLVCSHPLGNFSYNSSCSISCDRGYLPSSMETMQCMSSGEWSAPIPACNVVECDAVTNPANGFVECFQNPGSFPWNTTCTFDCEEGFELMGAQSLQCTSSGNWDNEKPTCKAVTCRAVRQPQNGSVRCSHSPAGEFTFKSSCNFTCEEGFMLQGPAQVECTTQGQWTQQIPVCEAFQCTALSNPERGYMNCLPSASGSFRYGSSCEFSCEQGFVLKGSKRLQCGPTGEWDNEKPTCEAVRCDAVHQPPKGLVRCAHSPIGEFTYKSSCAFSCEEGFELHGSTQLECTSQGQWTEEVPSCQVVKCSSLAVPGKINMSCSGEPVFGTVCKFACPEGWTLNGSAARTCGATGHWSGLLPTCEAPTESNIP
Excerpt: In these assays, the ligands may be supplied in their natural form as surface structures on promyelocytic HL60 cells. Since HL60 cells contain ligands and adhesion molecules of very different specificity, the desired specificity of the assay must therefore be provided by the binding component. Preferably, the binding components used are recombinant, soluble, fusion proteins formed from the extracytoplasmatic domains of E- or P-selectin, respectively, and the constant region of human immunoglobulin of the IgG1 subclass. […] An example of a suitable negative control is a fusion protein formed between the extracytoplasmic domain of CD4 and the IgG constant region.
These fusion proteins are then used in a cell adhesion assay in which COS cells transfected with the recombinant fusion proteins are first bound to the surface of a microtiter plate. The compound to be tested is added to the wells of the microtiter platein varying concentrations, followed by HL60 cells. After a defined period of time, the wells of the microtiter plate are washed and the HL60 cells adhering to the plate are counted. In a preferred embodiment, the HL60 cells are prelabeled with a fluorescent dye to facilitate cell counting. The number of cells adhering to the plate allows quantification of the inhibitory properties of the compound under test. […]

selectins [6] = settings: prior-art glycopeptide analogs; cited from earlier work

For `COC1OC(C)C(O)(CC(=O)CCCOC2(C(=O)O)CC(O)C(NC(C)=O)C([C@H](O)[C@H](O)CO)O2)C(O)C1O` (some centres unmarked), the “affinity for selectin binding” value (selectin) is given as “only low affinity”.

With `CC1O[C@@H](CCCc2ccc(CC(N)C(=O)NC(CCCNC(=N)N)C(=O)NCC(=O)N[C@@H](CC(=O)O)C(=O)NC(CO)C(=O)O)cc2)C(O)C(O)[C@@H]1O` (stereo partly drawn) [Compound 36, Ser-Asp-Gly-Arg-[C-FucPhe]] (H-[X1][ξR]GD[ξS]-OH) the pIC50 (P-selectin [1]) was 2.30 to 2.52.

In the case of `C[C@@H]1OC(CCCCC2O[C@H](CO)[C@H](O)[C@H](OCC(=O)O)[C@H]2O)[C@@H](O)C(O)[C@@H]1O` (some centres unmarked) [(3)], the pIC50 (selectins [2]) is given as 1.70 to 2.00.

For `C[C@@H]1O[C@@H](CC(=O)CO[C@H]2CC[C@@]3(C)C(CC[C@]4(C)[C@H]3C(=O)C=C3[C@@H]5C[C@@](C)(C(=O)O)CC[C@]5(C)CC[C@]34C)C2(C)C)[C@@H](O)[C@H](O)[C@@H]1O` (some centres unmarked) [(4a)], the pIC50 (P-selectin [3]) is given as 3.12.

For sialyl-Lewis-X [SLeX], the “protection against myocardial reperfusion injuries” value [4] is listed as “used successfully” and the “protection against P-selectin-dependent lung damage” value [5] is listed as “used successfully”.

For `CC1O[C@@H](C/C=C/c2ccc(C(=O)O)cc2)C(O)[C@@H](O)[C@@H]1O` (some centres unmarked) [Compound 23], the pIC50 (E-selectin) was 2.70 and the pIC50 (P-selectin [1]) was 2.70.

With `C[C@@H]1O[C@@H](CCCc2ccc(CC(N)C(=O)O)cc2)[C@@H](O)[C@H](O)[C@@H]1O` (some centres unmarked) [Compound 20] the pIC50 (E-selectin) was 2.70 and the pIC50 (P-selectin [1]) was 2.70.

For `C[C@@H]1OC(CC(=O)C2CCC[C@H]2C(=O)N[C@@H](Cc2ccccc2)C(=O)O)[C@@H](O)[C@H](O)[C@@H]1O` (some centres unmarked) [(2)], the pIC50 (selectins [6]) is listed as roughly 3.00.
